According to article PMC5062570 (Nature Communications, 2016):
Entries after “also recorded” stand apart in the source; their conditions may differ. Read-outs that look alike come from different tables or passages of the source.

How the values were obtained:
[1] = tested on: retinal pigment epithelium (RPE); set-up: method as in PMID 22090477, PMID 25361751; details: cited from earlier work
[2] = Plasma exposure (average unbound plasma concentration) in rats; type: in vivo, rat; details: Wistar Han, oral, rat, 29 days, average unbound plasma concentration, read-out: Avg Cp,u parent
Description: (§1) Wistar Han rats (obtained from Charles River, 125–300 g, 6–9 weeks old at study start, see Supplementary Table 7 for number of males and females) received daily oral dosing of test compounds or vehicle at the indicated concentrations for 7–29 days as indicated. The doses were prepared in a solution of 0.5% methylcellulose and 0.2% polysorbate 80, or 0.5% methylcellulose and hydroxypropyl methylcellulose acetate succinate (high fine grade) and delivered in a volume of 10 ml kg^−1 per day. Blood samples for bioanalytical analysis were collected in K2EDTA tubes via jugular vessel. Plasma was isolated after centrifugation and stored at −20 °C prior to analysis. Animals were given an additional dose the day after the end of the study (days 8, 15 or 30 for 7, 14 and 29 day studies, respectively) then killed by gas anaesthesia (isoflurane) followed by exsanguination ∼3 h after this final dose.
Plasma samples were analysed after protein precipitation by treating 20 μl of sample matrix with 200 μl of acetonitrile containing internal standard. All samples were centrifuged at 3,000 r.p.m. for 5 min. Then 100 μl of supernatant was transferred to a clean plate and evaporated to dryness under N2. Samples were reconstituted in 200 μl of 80:20 (v:v) acetonitrile:water. Samples were analysed on Waters Acquity UPLC connected to AB Sciex API5500 QTrap MS/MS.
Plasma protein binding was determined in the Rapid Equilibrium Device (RED, Thermo Scientific). Frozen plasma was warmed to 37 °C and adjusted to pH 7.4. The plasma was spiked with compound to a final concentration of 2 μM. Aliquots of spiked plasma were added to the donor (red) side, followed by addition of buffer to the receiver (white) side. The RED device was covered with a gas-permeable membrane and agitated within a humidified CO2 incubator (5% CO2, 75% relative humidity). Plasma (15 μl) and buffer (45 μl) were sampled from each insert and were matrix-matched with appropriate blank matrix (plasma with 45 μl buffer and buffer with 15 μl of plasma). Samples were protein-precipitated with acetonitrile containing internal standard, and the resulting supernatant was analysed by LC-MS/MS.

[3] = biological target: T1, CatD (Homo sapiens, UniProt P07339); experiment: CatD cellular assay (competition of PF-7802 photolabelling in live ARPE-19 cells); type: cell-based; set-up: host or cells: ARPE-19; details: for CatD potency increase in live cells: CatD enzyme IC50 versus CatD cellular IC50; for IC50: live ARPE-19 cells, PF-7802 photoprobe 100 nM, 30 min
Description: ARPE-19 cells were plated at a density of 1.2 × 10^6 cells per well in six-well dishes 12–24 h before probe labelling. Culture media was removed completely and replaced with 1 ml of the appropriate serum-free media (no supplements) per well. Cells were then pretreated with test compounds at the indicated concentrations for 30 min (0.5% DMSO, 37 °C, 5% CO2). […] Ultraviolet irradiation was performed without culture plate lids for efficient irradiation, and samples were slowly rotated to prevent evaporation. After ultraviolet irradiation, cells were washed twice with Dulbecco's phosphate-buffered saline (DPBS), scraped into DPBS, centrifuged and stored as pellets at −80 °C.
Cells were lysed with sonication on ice in 70 μl DPBS and protein concentrations were determined using a BCA assay (Pierce). Total protein concentrations were then normalized to 1 mg ml^−1 in 50 μl total volume before addition of 5.5 μl click chemistry mix (1 : 3 : 1 : 0.5 volume of 50 mM CuSO4 (Sigma) in H2O : 1.7 mM TBTA (Sigma) in 4:1 t-BuOH:DMSO : 50 mM TCEP (Hampton Research) in dPBS : 10 mM TAMRA-azide (Lumiprobe) in DMSO - mixed immediately before use. Reagent solutions can be premade and stored at 4 °C except for TCEP, which should be made immediately before use). […] All fluorescence gels are presented in greyscale.
Target sequence in this assay (P07339 169-412 limits assumed): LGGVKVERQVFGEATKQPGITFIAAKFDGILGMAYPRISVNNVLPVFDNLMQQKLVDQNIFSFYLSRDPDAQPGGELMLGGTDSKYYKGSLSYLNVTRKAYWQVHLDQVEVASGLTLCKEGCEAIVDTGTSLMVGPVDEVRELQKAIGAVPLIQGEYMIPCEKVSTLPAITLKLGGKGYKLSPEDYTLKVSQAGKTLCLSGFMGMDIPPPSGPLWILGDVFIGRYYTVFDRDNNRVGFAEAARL
Target sequence in this assay (P07339 65-162 limits assumed): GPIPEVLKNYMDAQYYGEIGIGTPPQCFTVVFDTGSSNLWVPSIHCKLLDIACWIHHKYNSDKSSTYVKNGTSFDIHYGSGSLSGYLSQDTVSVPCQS

[4] = tested on: retinal pigment epithelium (RPE); experiment: Exploratory toxicology, ocular toxicity by retinal histology in rats; type: in vivo; details: for Female ocular toxicity incidence (positive or negative animals / total evaluated) / Female ocular toxicity outcome / Male ocular toxicity incidence (positive or negative animals / total evaluated) / Male ocular toxicity outcome: rat; for Ocular toxicity: 29-day studies with high daily doses
Description: as §1

[5] = biological target: T2, BACE1 (Homo sapiens, UniProt P56817); experiment: BACE1 biochemical cellular assay (sAPPβ ELISA in H4 cells overexpressing APP695); type: cell-based; set-up: endogenous in cells; host or cells: H4 human neuroglioma cells overexpressing human APP695; details: for BACE1 potency increase in live cells: BACE1 enzyme IC50 versus BACE1 cellular IC50; for IC50: sAPPβ ELISA, H4 neuroglioma cells with human wild-type APP
Description: Cellular inhibition of BACE1 was determined by measuring sAPPβ, the primary cleavage product of BACE-1, in H4 human neuroglioma cells overexpressing the wild-type human APP695. […] The colorimetric reaction was read by an EnVision plate reader (PerkinElmer).
Target sequence in this assay (P56817 46-501): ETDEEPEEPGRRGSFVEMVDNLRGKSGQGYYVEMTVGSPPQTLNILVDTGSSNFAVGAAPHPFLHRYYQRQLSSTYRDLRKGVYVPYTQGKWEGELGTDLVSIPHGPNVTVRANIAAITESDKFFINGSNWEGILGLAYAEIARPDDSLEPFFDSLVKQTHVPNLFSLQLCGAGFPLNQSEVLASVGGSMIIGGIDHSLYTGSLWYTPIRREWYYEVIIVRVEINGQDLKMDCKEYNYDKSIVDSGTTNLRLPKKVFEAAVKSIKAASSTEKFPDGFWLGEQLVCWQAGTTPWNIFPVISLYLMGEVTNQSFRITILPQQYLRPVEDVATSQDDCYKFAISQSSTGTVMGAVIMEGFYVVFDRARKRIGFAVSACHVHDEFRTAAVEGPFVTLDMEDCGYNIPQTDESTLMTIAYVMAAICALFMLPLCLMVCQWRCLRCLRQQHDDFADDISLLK

[6] = biological target: T1, CatD; experiment: CatD purified enzyme fluorescence polarization assay; type: biochemical; set-up: final maturation into a non-covalently associated heavy chain and light chain; purchased Sigma C8696; host or cells: human liver; details: for IC50: purified human enzyme, fluorescence polarization, substrate-based
Description: (§2) Purified enzyme inhibition of BACE1, BACE2, CatD and CatE was determined using fluorescence polarization (FP) assays. Briefly, purified enzymes were treated with test compounds (1% DMSO, 37 °C) in the presence of synthetic peptide substrates (150 nM) in 30 μl total volume of NaOAc buffer (100 mM, pH 4.5, 0.0001% Tween-20) in a 384-well plate. After incubation, reactions were stopped and substrate captured by the addition of 1.5 μM streptavidin, and FP measured with an EnVision plate reader (PerkinElmer, excitation 485 nm, emission 530 nm). […] BACE2 activity was assessed with 0.5 nM recombinant BACE2 (R&D Systems 4097-AS) and the same synthetic substrate used for BACE1, with a 1 h incubation time. […] CatE activity was assessed with 1.0 nM recombinant CatE (Creative BioMart CTSE-255H) and the same synthetic substrate used for CatD, with a 1.5 h incubation time.
Target sequence in this assay (P07339 65-162 limits assumed): as the sequence (P07339 65-162 limits assumed) above
Target sequence in this assay (P07339 169-412 limits assumed): as the sequence (P07339 169-412 limits assumed) above

[7] = tested on: CatD; details: read-out: IC50 against purified CatD in vitro; cited from earlier work
[8] = pKa determination by multiplexed capillary electrophoresis; type: physicochemical; details: aqueous buffers
Description: All pKa values were determined at Analiza, Inc. by multiplexed capillary electrophoresis (mCE) using 96-capillary array electrophoresis instrument to measure the effective mobility (migration time of the compound in relation to neutral marker, DMSO) with ultraviolet detection. The pKa values were obtained from the ionization curves by plotting the compound effective mobility (24 points across pH range 1.7–11.2) versus pH. All pKa results were determined using aqueous buffers with method average absolute error 0.12.

[9] = biological target: T3, BACE2 (Homo sapiens, UniProt Q9Y5Z0); experiment: BACE2 purified enzyme fluorescence polarization assay; type: biochemical; details: purified human enzyme, fluorescence polarization
T3 construct: purchased R&D Systems 4097-AS
T3 sequence (Q9Y5Z0 63-518): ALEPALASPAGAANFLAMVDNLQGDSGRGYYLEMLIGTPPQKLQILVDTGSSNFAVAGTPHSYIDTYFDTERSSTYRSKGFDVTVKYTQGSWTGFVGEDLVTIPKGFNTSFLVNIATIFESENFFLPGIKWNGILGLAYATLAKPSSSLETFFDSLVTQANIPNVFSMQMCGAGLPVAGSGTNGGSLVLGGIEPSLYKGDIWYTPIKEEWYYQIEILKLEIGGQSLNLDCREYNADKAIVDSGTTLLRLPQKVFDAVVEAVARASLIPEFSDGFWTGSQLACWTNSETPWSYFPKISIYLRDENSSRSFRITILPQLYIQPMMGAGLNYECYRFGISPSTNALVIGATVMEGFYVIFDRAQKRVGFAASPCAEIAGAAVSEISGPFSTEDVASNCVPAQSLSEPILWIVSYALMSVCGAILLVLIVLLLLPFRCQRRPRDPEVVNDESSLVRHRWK
Description: as §2

[10] = biological target: T2, BACE1; experiment: BACE1 purified enzyme fluorescence polarization assay; type: biochemical; set-up: His (C); made in house; host or cells: CHO-K1
Description: as §2
Target sequence in this assay (P56817 46-457): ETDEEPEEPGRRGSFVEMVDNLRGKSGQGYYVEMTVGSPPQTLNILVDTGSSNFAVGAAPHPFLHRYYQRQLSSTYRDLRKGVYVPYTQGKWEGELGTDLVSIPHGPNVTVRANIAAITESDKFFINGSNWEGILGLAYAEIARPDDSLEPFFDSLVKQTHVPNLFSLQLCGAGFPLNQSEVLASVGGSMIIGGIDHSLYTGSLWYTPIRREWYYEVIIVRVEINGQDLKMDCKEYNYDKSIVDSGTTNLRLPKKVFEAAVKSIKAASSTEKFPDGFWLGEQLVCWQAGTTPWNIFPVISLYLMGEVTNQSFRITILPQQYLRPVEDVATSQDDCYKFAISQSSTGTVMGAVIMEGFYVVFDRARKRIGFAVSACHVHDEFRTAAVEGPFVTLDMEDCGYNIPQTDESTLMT

[11] = biological target: CatD in ARPE-19 cells (Homo sapiens, UniProt P07339); experiment: Live cell lysosome neutralization and PF-7802 labelling of CatD; details: ammonium chloride 10 mM, 2 h or bafilomycin A1 400 nM, 4 h before labelling
[12] = 29 days, 100 mg kg-1 once daily
[13] = purified human enzyme, fluorescence polarization, peptide substrate

Sequence of CatD in ARPE-19 cells (P07339 169-412 limits assumed): as the sequence (P07339 169-412 limits assumed) above
Sequence of CatD in ARPE-19 cells (P07339 65-162 limits assumed): as the sequence (P07339 65-162 limits assumed) above

IC50 [9] [nM] | IC50 [3] [nM] | IC50 [6] [nM] | pKa [8] | Compound | CatD potency increase in live cells [3] [x] | BACE1 potency increase in live cells [5] [x] | IC50 [5] [nM] | IC50 [10, 13] [nM] | also measured
 |  |  |  | CC1(C#Cc2cnc3c(c2)[C@]2(COC(N)=N2)c2cc(-c4cccnc4F)ccc2O3)COC1 [AMG-8718, (S)-7-(2-Fluoropyridin-3-yl)-3-((3-methyloxetan-3-yl)ethynyl)-5′H-spiro[chromeno[2,3-b]pyridine-5,4′-oxazol]-2′-amine] |  |  |  |  | Ocular toxicity in preclinical animal models [1]: ocular toxicity in preclinical animal models
 |  |  |  | NC1=N[C@@]2(c3cc(NC(=O)c4ccc(F)cn4)ccc3F)COC[C@H]2CS1 [LY2886721, reference compound] | > 15 | 13 |  |  | concentration at 29 days ([2]; 100 mg kg-1 once daily): 3480 nM; CatD potency difference between cell-free enzyme and cellular assays [3]: > 15 fold; Female ocular toxicity incidence (positive or negative animals / total evaluated) [4, 12]: 4/4; Female ocular toxicity outcome [4, 12]: Neg (negative (neg) if there was no ocular abnormality observed); Male ocular toxicity incidence (positive or negative animals / total evaluated) [4, 12]: 4/4; Male ocular toxicity outcome [4, 12]: Neg (negative (neg) if there was no ocular abnormality observed); Retinal finding by fluorescence microscopy ([4]; rats, 100 mg kg-1 daily, 29 days): no ocular abnormality was observed; Ocular toxicity ([4]; rats): negative for ocular toxicity; also recorded: no ocular findings; also recorded: no ocular toxicity; Inhibition of purified CatD ([6]; purified CatD biochemical substrate assay): inactive; IC50 [7]: > 100000 nM; pKa ([8]; read-out: pKa): 7.6
> 20000 | > 20000 | > 20000 |  | NC1=N[C@@]2(c3ccc(F)cc3F)CO[C@@H](C(=O)O)C[C@H]2[C@@H](CF)S1 [PF-2696] |  |  |  |  | IC50 ([10]; purified enzyme): > 20000 nM
1600 | 940 | 16000 | 7.0 | NC1=N[C@@]2(c3ccc(F)cc3F)CO[C@@H](c3cc(CO)no3)C[C@H]2[C@@H](CF)S1 [PF-3763] | 17 | 4.8 | 80 | 380 | 
670 | 580 | 37000 | 6.9 | NC1=N[C@@]2(c3ccc(F)cc3F)CO[C@@H](c3nc(CO)co3)C[C@H]2[C@@H](CF)S1 [PF-7152] | 64 | 7.2 | 64 | 460 | 
 |  |  |  | Cl.N [ammonium chloride] |  |  |  |  | PF-7802 labelling of CatD after lysosome neutralization [11]: significantly decreased labelling of CatD
 |  |  |  | CO/C1=C\C(C)=C\[C@@H](C)[C@@H](O)[C@@H](C)C/C(C)=C/C=C/[C@H](OC)[C@@H]([C@@H](C)[C@@H](O)[C@H](C)[C@@]2(O)C[C@@H](O)[C@H](C)[C@@H](C(C)C)O2)OC1=O [bafilomycin A1] |  |  |  |  | PF-7802 labelling of CatD after lysosome neutralization [11]: significantly decreased labelling of CatD

Compound | IC50 [9] [nM] | IC50 [3] [nM] | IC50 [6] [nM] | pKa [8] | CatD potency increase in live cells [3] [x] | BACE1 potency increase in live cells [5] [x] | IC50 [5] [nM] | IC50 [10, 13] [nM] | also measured
C[C@H]1SC(N)=N[C@@]2(c3ccc(F)cc3F)CO[C@@H](c3cc(CO)no3)C[C@@H]12 [PF-9159] |  | 110 | 17000 | 7.8 | 150 | 12 | 17 | 210 | 
COc1cnc(C(=O)Nc2ccc(F)c([C@]3(C)CS(=O)(=O)N(C)C(N)=N3)c2)cn1 [SG1, reference compound] | 17 | 2900 | > 100000 |  | > 34 | 10 | 0.59 | 6 | concentration at 29 days ([2]; 60 mg kg-1 once daily): 1560 nM; BACE1 selectivity over CatD in cells ([3]; cellular inhibition of BACE1 cleavage of APP versus inhibition of CatD labelling by PF-7802): > 2,000 fold; Female ocular toxicity incidence (positive or negative animals / total evaluated) ([4]; 29 days, 60 mg kg-1 once daily): 4/4; Female ocular toxicity outcome ([4]; 29 days, 60 mg kg-1 once daily): Neg (negative (neg) if there was no ocular abnormality observed); Male ocular toxicity incidence (positive or negative animals / total evaluated) ([4]; 29 days, 60 mg kg-1 once daily): 4/4; Male ocular toxicity outcome ([4]; 29 days, 60 mg kg-1 once daily): Neg (negative (neg) if there was no ocular abnormality observed); Ocular toxicity ([4]; rats): negative for ocular toxicity; also recorded: no ocular findings; also recorded: no ocular toxicity; pKa ([8]; read-out: pKa): 6.9
